Results on 26 molecules are retold here after patent publication US6794396B2, “Substituted pyridines useful for inhibiting cholesteryl ester transfer protein activity” (Pharmacia Corporation, priority 1998, dated 2004).

Broadly, the IC50 is the concentration that gives 50% inhibition.

SMILES strings stand for the structures. Where “and” joins values, the source holds several entries; their conditions need not be identical. Identical values can stand only once.

The target of one assay is T1, CETP (Homo sapiens, UniProt P11597).
T1 construct: made in house; host or cells: CHO cells (serum-free conditioned medium)
T1 sequence (P11597 18-493): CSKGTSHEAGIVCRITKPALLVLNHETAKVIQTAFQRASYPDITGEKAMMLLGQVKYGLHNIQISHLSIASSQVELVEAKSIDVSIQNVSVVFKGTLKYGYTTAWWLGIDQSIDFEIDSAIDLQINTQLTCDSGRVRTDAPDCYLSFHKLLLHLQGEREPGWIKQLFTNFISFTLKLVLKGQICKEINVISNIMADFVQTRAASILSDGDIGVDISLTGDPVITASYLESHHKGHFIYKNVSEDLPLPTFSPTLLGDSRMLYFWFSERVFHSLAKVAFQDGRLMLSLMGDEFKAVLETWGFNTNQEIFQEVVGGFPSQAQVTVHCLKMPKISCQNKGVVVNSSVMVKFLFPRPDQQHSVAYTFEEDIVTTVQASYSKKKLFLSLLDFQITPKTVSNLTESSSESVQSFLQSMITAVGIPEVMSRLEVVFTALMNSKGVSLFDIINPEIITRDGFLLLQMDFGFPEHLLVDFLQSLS
As to the kind of experiment: CETP activity in vitro: transfer of [3H]CE from HDL donor to LDL acceptor particles. The assay is classed as biochemical. The settings on record: 10 μm. In outline: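 CETP from conditioned medium of CETP-transfected CHO cells incubated with [3H]CE-labelled HDL donor and LDL acceptor, pH 7.4 Tris buffer with NaCl, EDTA and 1% BSA, 2 h at 37 °C. LDL precipitated with dextran sulfate/MgCl2, filtered, and transferred radioactivity counted; IC50 reported.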
As for `COC(=O)c1c(C(F)F)nc(C(F)(F)F)c(SCCF)c1CC(C)C` [Compound 148, Methyl 2-(Difluoromethyl)-5-(2-fluoroethylthio)4-(2-methylpropyl)-6-(trifluoromethyl)-3-pyridinecarboxylate], the “% transfer at 10 μm” value was 32^D %.

`COC(=O)c1c(C(F)F)nc(C(F)(F)F)c(SC(C)=O)c1CC(C)C` [Compound 149, Methyl 5-(Acetylthio)-2-(difluoromethyl)-4-(2-methylpropyl)-6-(trifluoromethyl)-3-pyridinecarboxylate]: the “% transfer at 10 μm” value was 31^D %. The same measure, in the same setting: the figure for `COC(=O)c1c(C(F)F)nc(C(F)(F)F)c(SC2CCCO2)c1CC(C)C` (stereo not shown) [Compound 150, Methyl 2-(Difluoromethyl)-4-(2-methylpropyl)-5-[(tetrahydro-2-furyl)thio]-6-(trifluoromethyl)-3-pyridinecarboxylate] is 95^D %.

Staying with this assay, now noted: 50% inhibition of [3H]CE transfer from HDL to LDL, 2 hours at 37° C.; read-out: IC50(μm).
As to `COC(=O)c1c(C(F)F)nc(C(F)(F)F)c(C(=O)Oc2cccc(OC)c2)c1CC(C)C` [Compound 165, 3-Methyl 5-(3-Methoxyphenyl) 2-(Difluoromethyl)-4-(2-methylpropyl)-6-(trifluoromethyl)-3,5-pyridicarboxylate], the concentration for half-maximal inhibition (IC50) is > 100 µM and 70 µM. Same read-out and setting: the result for `COC(=O)c1c(C(F)F)nc(C(F)(F)F)c(C(=O)Oc2ccc(C(C)(C)C)cc2C(C)(C)C)c1CC(C)C` [Compound 168, 3-Methyl 5-(2,4-Di-t-butylphenyl) 2-(Difluoromethyl)-4-(2-methylpropyl)-6-(trifluoromethyl)-3,5-pyridicarboxylate] reads 60 µM. For the molecule `COC(=O)c1c(C(F)F)nc(C(F)(F)F)c(C(=O)Oc2ccc(C(C)C)cc2Cc2ccc(F)cc2)c1CC(C)C` [Compound 170, 3-Methyl 5-[2-(4-Fluorobenzyl)-4-isopropylphenyl]2-(Difluoromethyl)-4-(2-methylpropyl)-6-(trifluoromethyl)-3,5-pyridicarboxylate], the half-maximal inhibitory concentration (IC50) turned out to be 40 µM.

Staying with this assay, now noted: @ 100 μm; footnotes A and B of Table 6.
As for `COC(=O)c1c(C(F)F)nc(C(F)(F)F)c(CSc2nccn2C)c1CC(C)C` [Compound 188, Methyl 5-[(1-Methylimidazol-2-yl)thiomethyl]-2-(difluoromethyl)-4-(2-methylpropyl)-6-(trifluoromethyl)-3-pyridinecarboxylate], the CE transferred result was “^A90% CE transferred @ 100 μm”. Turning to `COC(=O)c1c(C(F)F)nc(C(F)(F)F)c(CSc2nnnn2C)c1CC(C)C` [Compound 189, Methyl 5-[(1-Methyltetrazol-5-yl)thiomethyl]-2-(difluoromethyl)-4-(2-methylpropyl)-6-(trifluoromethyl)-3-pyridinecarboxylate], the CE transferred entry was “^A90% CE transferred @ 100 μm”.

The same assay, now with this note: IC50(μm), 50% inhibition of [3H]CE transfer from HDL to LDL, 2 hours at 37° C.
In the case of `COC(=O)c1c(C(F)F)nc(C(F)(F)F)c(C(=O)Sc2ccccc2C(C)C)c1CC(C)C` [Compound 157, Methyl 2-(Difluoromethyl)-4-(2-methylpropyl)-5-{[(2-isopropylphenyl)thio]carbonyl}-6-(trifluoromethyl)-3-pyridinecarboxylate], the concentration for half-maximal inhibition (IC50) was 60 µM. On the same count and under the same terms, the figure for `COC(=O)c1c(C(F)F)nc(C(F)(F)F)c(C(=O)Oc2ccccc2C(C)C)c1CC(C)C` [Compound 175, 3-Methyl 5-(2-Isopropylphenyl) 2-(Difluoromethyl)-4-(2-methylpropyl)-6-(trifluoromethyl)-3,5-pyridicarboxylate] is more than 100 µM.

The assay is the same for the next values; noted with them: IC50, Table 5, compounds of formula T-5.
`COC(=O)c1c(C(F)F)nc(C(F)(F)F)c(SC(=O)c2c(C(F)(F)F)nc(C(F)F)c(C(=O)OC)c2CC(C)C)c1CC(C)C` [Compound 183, Methyl 5-{[2-(Difluoromethyl)-4-(2-methylpropyl)-3-(methoxycarbonyl)-6-(trifluoromethyl)-5-pyridyl]carbonylthio}-2-(difluoromethyl)-4-(2-methylpropyl)-6-(trifluoromethyl)-3-pyridinecarboxylate] yielded an IC50 of 50 µM.

The assay is the same for the next values; noted with them: IC50, Table 6, compounds of formula T-6.
With `COC(=O)c1c(C(F)F)nc(C(F)(F)F)c(CSc2ccc(Cl)cc2)c1CC(C)C` [Compound 185, Methyl 5-[(4-Chlorophenyl)thiomethyl]-2-(difluoromethyl)-4-(2-methylpropyl)-6-(trifluoromethyl)-3-pyridinecarboxylate], 10 µM corresponded to half-maximal inhibition (IC50).

`COC(=O)c1c(C(F)F)nc(C(F)(F)F)c(CSc2nccn2C)c1CC(C)C` [Compound 188, Methyl 5-[(1-Methylimidazol-2-yl)thiomethyl]-2-(difluoromethyl)-4-(2-methylpropyl)-6-(trifluoromethyl)-3-pyridinecarboxylate]: the IC50 is more than 100 µM. On to `COC(=O)c1c(C(F)F)nc(C(F)(F)F)c(CSc2ccc(OC(F)(F)F)cc2)c1CC(C)C` [Compound 191], for which the IC50 is 10 µM.

For `COC(=O)c1c(C(F)F)nc(C(F)(F)F)c(CSc2ccc([N+](=O)[O-])cc2)c1CC(C)C` [Compound 198, Methyl 5-[(4-Nitrophenyl)thiomethyl]-2-(difluoromethyl)-4-(2-methylpropyl)-6-(trifluoromethyl)-3-pyridinecarboxylate], the IC50 was 7 µM.

Still in this assay, the particulars now being: Table 5, compounds of formula T-5; read-out: IC50.
As for `COC(=O)c1c(C(F)F)nc(C(F)(F)F)c(CSc2c(C(F)(F)F)nc(C(F)F)c(C(=O)OC)c2CC(C)C)c1CC(C)C` [Compound 182, Methyl 5-{[3-(Carbomethoxy)-2-(difluoromethyl)-4-isobutyl-6-(trifluoromethyl)-5-pyridyl]thiomethyl}-2-(difluoromethyl)-4-isobutyl-6-(trifluoromethyl)-3-pyridinecarboxylate], the IC50 amounted to 19 µM.

Staying with this assay, now noted: Table 6, compounds of formula T-6; read-out: IC50.
Regarding `COC(=O)c1c(C(F)F)nc(C(F)(F)F)c(CSc2cccc(Br)c2)c1CC(C)C` [Compound 184, Methyl 5-[(3-Bromophenyl)thiomethyl]-2-(difluoromethyl)-4-(2-methylpropyl)-6-(trifluoromethyl)-3-pyridinecarboxylate], the IC50 was 30 µM. Still for that read-out and setting: the figure for `COC(=O)c1c(C(F)F)nc(C(F)(F)F)c(CSc2c(F)c(F)cc(F)c2F)c1CC(C)C` [Compound 186, Methyl 5-[(2,3,5,6-Tetrafluorophenyl)thiomethyl]-2-(difluoromethyl)-4-(2-methylpropyl)-6-(trifluoromethyl)-3-pyridinecarboxylate] is 50 µM. As for `COC(=O)c1c(C(F)F)nc(C(F)(F)F)c(CSc2cc(C(C)(C)C)cc(C(C)(C)C)c2)c1CC(C)C` [Compound 187, Methyl 5-[(3,5-Di-t-butylphenyl)thiomethyl]-2-(difluoromethyl)-4-(2-methylpropyl)-6-(trifluoromethyl)-3-pyridinecarboxylate], the IC50 was found to be 40 µM. On the same count and under the same terms, the result for `COC(=O)c1c(C(F)F)nc(C(F)(F)F)c(CSc2nnnn2C)c1CC(C)C` [Compound 189, Methyl 5-[(1-Methyltetrazol-5-yl)thiomethyl]-2-(difluoromethyl)-4-(2-methylpropyl)-6-(trifluoromethyl)-3-pyridinecarboxylate] reads more than 100 µM. Still for that read-out and setting: the figure for `COC(=O)c1c(C(F)F)nc(C(F)(F)F)c(CSc2nc3ccc([N+](=O)[O-])cc3[nH]2)c1CC(C)C` [Compound 190, Methyl 5-[(5-Nitrobenzimidazol-2-yl)thiomethyl]-2-(difluoromethyl)-4-(2-methylpropyl)-6-(trifluoromethyl)-3-pyridinecarboxylate] is 25 µM. On the same count and under the same terms, the figure for `COC(=O)c1c(C(F)F)nc(C(F)(F)F)c(CSc2ccc3ccccc3n2)c1CC(C)C` [Compound 192, Methyl 5-[(Quinolin-2-yl)thiomethyl]-2-(difluoromethyl)-4-(2-methylpropyl)-6-(trifluoromethyl)-3-pyridinecarboxylate] is 40 µM; for `COC(=O)c1c(C(F)F)nc(C(F)(F)F)c(CSc2ccc(Br)cc2)c1CC(C)C` [Compound 193, Methyl 5-[(4-Bromophenyl)thiomethyl]-2-(difluoromethyl)-4-(2-methylpropyl)-6-(trifluoromethyl) -3-pyridinecarboxylate] it is 20 µM. For `COC(=O)c1c(C(F)F)nc(C(F)(F)F)c(CSc2c(F)c(F)c(F)c(F)c2F)c1CC(C)C` [Compound 194, Methyl 5-[(Pentafluorophenyl)thiomethyl]-2-(difluoromethyl)-4-(2-methylpropyl)-6-(trifluoromethyl)-3-pyridinecarboxylate], the IC50 came out at 30 µM. On the same count and under the same terms, the figure for `COC(=O)c1c(C(F)F)nc(C(F)(F)F)c(CSc2cc(Cl)ccc2Cl)c1CC(C)C` [Compound 195, Methyl 5-[(2,5-Dichlorophenyl)thiomethyl]-2-(difluoromethyl)-4-(2-methylpropyl)-6-(trifluoromethyl)-3-pyridinecarboxylate] is 50 µM.

Consider `COC(=O)c1c(C(F)F)nc(C(F)(F)F)c(CSc2c(F)c(F)c(C(F)(F)F)c(F)c2F)c1CC(C)C` [Compound 196, Methyl 5-[(2,3,5,6-Tetrafluoro-4-(trifluoromethyl)phenyl)thiomethyl]-2-(difluoromethyl)-4-(2-methylpropyl)-6-(trifluoromethyl)-3-pyridinecarboxylate], for which the IC50 is 20 µM. The same measure, in the same setting: the result for `COC(=O)c1c(C(F)F)nc(C(F)(F)F)c(CSc2nccc(C)n2)c1CC(C)C` [Compound 197, Methyl 5-[(4-Methylpyrimidin-2-yl)thiomethyl]-2-(difluoromethyl)-4-(2-methylpropyl)-6-(trifluoromethyl)-3-pyridinecarboxylate] reads 60 µM; that for `COC(=O)c1c(C(F)F)nc(C(F)(F)F)c(CSc2ccc(OC)cc2)c1CC(C)C` [Compound 199, Methyl 5-[(4-Methoxyphenyl)thiomethyl]-2-(difluoromethyl)-4-(2-methylpropyl)-6-(trifluoromethyl)-3-pyridinecarboxylate], 20 µM.
